Converted amounts (≈) assume the structure as drawn. “And” between values parts separate entries of the source, which are not always exact repeats. Equal entries are not always repeated. Residues, ends and D or L forms follow the SMILES beside them. *: point of attachment. βNA = c1ccc2cc(N*)ccc2c1
Legend:
[1] = system: drug transporters of M. circinelloides and R. microsporus; experiment: Rhodamine 6G efflux following glucose injection; format: cell-based, Mucor circinelloides, Rhizopus microsporus
Description: (§1) Methods: The inhibitory effect of PaβN on transporters activity was assessed by measuring the efflux of their fluorescent substrate rhodamine 6G following glucose injection. The interaction of PaβN and posaconazole was assessed by the chequerboard dilution method in order to determine the fractional inhibitory concentration index (FICI).

[2] = system: M. circinelloides and R. microsporus; experiment: Chequerboard dilution with posaconazole; format: cell-based, Mucor circinelloides, Rhizopus microsporus; details: PaβN + posaconazole; five ATCC or clinical isolates
Description: as §1

[3] = system: C. tropicalis; experiment: ARIA surveillance, CLSI M27 broth microdilution; format: cell-based, Candida tropicalis
Description: Materials & Methods: Isolates (n = 730) were collected and re-identified by MALDI-TOF or molecular methods. […] Percentage susceptibility (%S) or wild-type (%WT) were calculated according to CLSI breakpoints (CLSI supplement M60) or epidemiological cut-off values (CLSI supplement M59), respectively.

[4] = system: A. fumigatus strains; experiment: EUCAST E.DEF 9.3.2 broth microdilution; format: cell-based, Aspergillus fumigatus; design: MIC Range: unit not given beside the values; MIC50 / MIC90: unit not given here
Description: Methods: The research was conducted on 29 A. fumigatus strains. Minimum inhibitory concentrations (MIC) were detected by broth microdilution method (BM) following EUCAST definitive document E.DEF 9.3.2 and E-test in accordance with manufacturer instructions.

[5] = system: azole-resistant A. fumigatus SS clinical strains; experiment: EUCAST E.DEF 9.3.2; format: cell-based; details: Aspergillus fumigatus
[6] = system: A. fumigatus veterinary isolates; experiment: EUCAST microdilution of veterinary isolates; format: cell-based, Aspergillus fumigatus
Description: All have been confirmed as A. fumigatus by MALDI-TOF MS using the BCCM/IHEM database. The antifungal susceptibility was evaluated using the microdilution EUCAST method. Cyp51A gene sequencing has been performed on all resistant isolates.

[7] = system: A. niger complex; experiment: EUCAST E.Def 9.3.2 susceptibility, CPA isolates; format: cell-based, Aspergillus niger complex; details: n = 7, ECOFFs
[8] = system: C. auris Isolate B and Isolate C; experiment: microbe, parasite or virus in culture; format: cell-based, Candida auris; details: for reduction in MIC: Isolate C with ERG11 WT in place of K143R
[9] = system: McLDM strains; experiment: EUCAST MIC, S. cerevisiae overexpressing M. circinelloides LDM, resistance phenotypes; format: cell-based, Saccharomyces cerevisiae
[10] = system: Scedosporium apiospermum; experiment: EUCAST reference method MIC; format: cell-based
Description: Case presentation: A patient presented with a bursitis of their left elbow. Six months before they were treated with lymphodepleting chemotherapy directly followed by B-cell associated CD19-specific chimeric antigen receptor (CAR) T cell therapy for recurrence of follicular lymphoma. They were considered immunocompromised, with total neutrophils and lymphocytes slightly below normal levels, absent B-cells, and a treatment associated persistent hypogammaglobulinaemia. Four weeks before presentation at our hospital they contacted their GP because of swelling and pain of their left elbow. Their GP aspirated fluid from their elbow, injected steroids and started antibiotics, but now there was recurrence of swelling and pain. Bursitis without arthritis was diagnosed by a rheumatologist and the bursa was surgically opened and drained, relieving pus. The patient was started on oral flucloxacillin and sent home. Two days later the culture of the pus from the bursa grew white colonies on a Sabouraud dextrose agar plate, showing long conidophores with large oval conidia on microscopy. […] Over the next few weeks the bursitis symptoms diminished. […] Voriconazole is considered first line treatment for Scedosporium infections. […] Eight weeks later there were no signs of bursitis and posaconazole was discontinued.

[11] = system: Phaeoacremonium parasiticum; experiment: Antifungal susceptibility testing; format: cell-based
Description: Results: Cultures for bacteria were sterile. Culture on Sabouraud was positive after 5 days of incubation, showing slow growing and initially white colonies. […] Its identification was performed by sequencing the internal transcribed spacer (ITS) region of ribosomal DNA, being the isolate identified as Phaeoacremonium parasiticum (100% homology).

[12] = system: A. fumigatus clinical isolates; experiment: Susceptibility of clinical isolates from CF patients; details: all 10 clinical isolates
[13] = system: C. auris clinical strains; experiment: organism not typed; format: cell-based, Candida auris; details: range, 78 strains from patients with COVID-19
[14] = system: A. fumigatus (resistant to posaconazole strain v79-63); experiment: Neutropenic animal model of invasive pulmonary aspergillosis; format: in vivo, CD-1 mice
[15] = system: eumycetoma; details: in vivo; cited from earlier work
Source text: Mycetoma: Mycetoma is a chronic, progressive, implantation inflammatory disease characterised by severe and stigmatising deformities, disability, and high morbidity. The disease is caused by fungi (eumycetoma) and several Actinomycetales members (actinomycetoma). Its estimative global burden is 9000 cases. There are no robust epidemiological studies on mycetoma in SA, but it is tconsidered the third most prevalent endemic IM in SA, especially among low socioeconomic adult males living in rural areas from Argentina, Brazil, Colombia and Venezuela, where the principal agents are Madurella spp. a ...

[16] = Triazole drug levels in ABPA patients with asthma; format: in vivo, human; details: 452 patients, Oct 2009 to March 2021
Source text: Materials & Methods: This was a retrospective single-centre cohort study evaluating longitudinal outcomes in non-cystic fibrosis (CF) ABPA patients with underlying chronic lung disease (asthma), and description of treatment approaches. Statistical Analysis System (SAS) programming was used for data integration from multiple hospital electronic systems, for patient identification and data analysis. Criteria for inclusion were patients with a background of asthma, serum Total IgE >1000 IU/mL and a positive Aspergillus IgE, with or without a positive culture for A. fumigatus from a respiratory sample. Data collected included demographics, lung function severity, disease activity serological markers (Aspergillus IgE, Aspergillus IgG, Total IgE) and triazole levels. In this study the impact of fungal therapy on disease outcomes was assessed.

[17] = system: Rasamsonia argillacea species complex; experiment: Antifungal susceptibility testing; format: cell-based; details: sputum isolate of a CF patient
[18] = system: R. delemar 99–880; experiment: CLSI M38 in vitro susceptibility; format: cell-based, Rhizopus delemar; details: Rhizopus delemar, read-out: MIC at 100% inhibition of growth
Description: (§2) Methods & Materials: In vitro susceptibility was conducted by the CLSI M38 method using a clinical isolate of Rhizopus delemar (a common cause of mucormycosis). ICR mice were immunosuppressed with cyclophosphamide and cortisone acetate on days −2, +3, and +8, relative to infection with intratracheally instilled R. delemar. […] Mice survival through Day +21 served as the primary endpoint.

[19] = system: A. fumigatus complex; details: share of isolates, n = 59, EUCAST clinical breakpoints
[20] = system: Rhizopus arrhizus; experiment: E test; format: cell-based
[21] = system: A. fumigatus strain v79-63; experiment: EUCAST MIC of the infecting strain; format: cell-based; details: Aspergillus fumigatus, V7963
[22] = system: Exophiala phaeomuriformis; experiment: MIC, CLSI M27-A3; format: cell-based; details: read-out: MIC values
Description: Materials & Methods: The aviation kerosone samples came from an aviation company in Porto Alegre, state of Rio Grande do Sul, Brazil. The fungi isolation was carried out using the modified ASTM D6974-09 Standard. In this procedure, 500 mL kerosene samples were filtered, in triplicate, under aseptic conditions, under vacuum, using a 0.22 μm membrane (Millipore). After filtering, the membranes were deposited in potato dextrose agar culture medium. The plates were incubated in an oven at 30 °C for seven days. After this period, the colonies were isolated in new culture media for purification of the isolates. Molecular identification was performed through the sequencing of ITS DNA regions. The profile of sensitivity to clinical antifungals was assessed following protocols M27-A3 of the Clinical and Laboratory Standards Institute (CLSI).

[23] = system: R. delemar; experiment: Murine mucormycosis, immunosuppressed mice infected intratracheally; format: in vivo, ICR mice; details: n = 20/arm
Description: as §2

[24] = system: A. flavus complex; details: n = 6, EUCAST clinical breakpoints
[25] = system: McLDM-F5-CPR; experiment: microbe, parasite or virus in culture; format: cell-based, Saccharomyces cerevisiae AD2Δgal; details: Saccharomyces cerevisiae, read-out: mean MIC
[26] = system: A. nidulans complex; details: all isolates, n = 2
[27] = ISV blood levels, HPLC; format: in vivo, human; details: for samples with level <1 mg/L: ICU
Description: Materials & Methods: ISV levels are routinely tested in our centre HPLC method. The lowest limit of quantification was set at 0.15 mg/L. ISV blood levels obtained between January 2017 and May 2021 were analysed and compared between those obtained from patients in ICU vs. others. Chi-square/Fisher’s exact test and Mann-Whitney test were used for categorical and continuous variables, respectively. Levels of ISV <1 mg/L were defined as low.

[28] = system: invasive fungal diseases (IFDs); details: 41 patients; ref published case reports, PubMed and Embase, 1990–2020; cited from earlier work
Source text: Among the 41 patients with IFDs, were those with invasive candidiasis and invasive mould diseases, including those caused by Aspergillus spp., Mucorales, and Fusarium spp. Sixteen (39%) had baseline neutropenia and 27 (66%) were considered to be refractory to standard therapy prior to GM-CSF administration. Among the 41 patients with IFDs, complete responses were reported in 35 (85%) patients and partial response in 1 patient, with 5 patients having no or unclear response. || Previously published case reports on the use of GM-CSF for adjunctive treatment of IFDs are summarized in Table 2. […]

[29] = system: C. albicans; experiment: Neutrophil control of hyphal growth (swarming); format: cell-based, Candida albicans; details: neutrophils of SOT and SCT recipients, ex vivo
Description: Methods and Materials: Twenty-one SOT, 19 SCT and 23 healthy control patients (HC) were identified and consented at primary care/outpatient transplant clinics. Transplant recipients were enrolled at a time period two to four months post-transplant. Following consent and peripheral blood collection, neutrophils were freshly isolated and co-incubated with C. albicans and the percent remaining live yeast was measured using a viability dye compared to a standard control to determine fungal elimination by neutrophils. Growth inhibition of C. albicans was also quantified by neutrophil swarming to yeast spotted onto glass slides, assessed by live cell imaging with or without G-CSF. Effect of soluble factors on neutrophils function was determined by incubation of healthy neutrophils with SOT and SCT serum and measuring ability to control C. albicans.

[30] = strain from pleural fluid of an ICU patient, no mutations in cyp51A
[31] = two strains from a cystic fibrosis patient, TR34/L98H

Molecule: NC(N)=NCCC[C@H](NC(=O)[C@@H](N)Cc1ccccc1)C(=O)Nc1ccc2ccccc2c1 [PaβN, Phenylalanine-Arginine Beta-Naphthylamide] (H-Phe-Arg-βNA)
- efflux of rhodamine 6G [1]: decrease the efflux of rhodamine 6G
- FICI [2]: 0.5 and 0.5 to 0.6

Molecule: CC[C@@H]([C@H](C)O)n1ncn(-c2ccc(N3CCN(c4ccc(OC[C@@H]5CO[C@@](Cn6cncn6)(c6ccc(F)cc6F)C5)cc4)CC3)cc2)c1=O [posaconazole]
- WT ([3]; Argentina): 57.1%
- WT ([3]; Australia, Panama, USA and Taiwan): > 90%
- WT ([3]; Italy): 47.4%
- MIC50 ([4]; 28 h): 0.25
- MIC90 ([4]; 28 h): 0.5
- MIC Range ([4]; 28 h, 29 strains): 0.125–2
- MIC50 ([4]; 48 h): 0.25
- MIC90 ([4]; 48 h): 0.5
- MIC Range ([4]; 48 h): 0.125–4
- MIC [5, 30]: 0.5 µg/mL (≈ 0.713 µM)
- MIC [5, 31]: 1 µg/mL (≈ 1.43 µM)
- isolates in the area of technical uncertainty (ATU) [6]: 60%
- Non-wild type isolates [7]: 43%
- change of MIC [8]: largely unchanged
- reduction in MIC [8]: 2 fold
- MICs compared to AD2Δ [9]: not affected
- MIC ([10]; first isolate from bursa pus): 1 µg/mL (≈ 1.43 µM)
- MIC ([10]; isolate two months later, under posaconazole): 2 µg/mL (≈ 2.85 µM)
- minimal inhibitory concentrations (MIC), in words [11]: low
- susceptibility [12]: susceptible
- MIC [13]: 0.06 to 8 µg/mL (≈ 0.0856 to 11.4 µM)
- log10CFU/lung ([14]; mean ± SEM, 3 animals treated for 3 d, placebo 6.1 ± 0.08): 5.2 ± 0.48 log10CFU/lung
- survival rates ([14]; survival recorded until 15 d, IL-18 10 ng/mouse intranasally daily -2 d till +7 d, posaconazole 16 mg/kg/day, groups of 10, control 20%): 56%
- Cure rate [15]: 25–35%
- median trough drug level [16]: 1.39 mg/L
- minimal inhibitory concentrations (MIC) [17]: high minimal inhibitory concentrations
- MIC [18]: 0.5 µg/mL (≈ 0.713 µM)
- Resistance [19]: 5%
- MIC [20]: > 32 µg/mL
- MIC [21]: > 16 µg/mL
- MIC [22]: 0.125 µg/mL (≈ 0.178 µM)
- % Survival ([23]; through Day +21, placebo 0): 25%
- Median Survival ([23]; treatment from 24 h post infection, IBREXA 30 mg/kg po BID 7 d, LAMB 10 mg/kg iv 4 d, POSA 30 mg/kg po QD 7 d, placebo 8): 13 days

Molecule: C[C@@H](c1nc(-c2ccc(C#N)cc2)cs1)[C@](O)(Cn1cncn1)c1cc(F)ccc1F [isavuconazole]
- MIC [5, 30]: 1 µg/mL (≈ 2.29 µM)
- MIC [5, 31]: 8 µg/mL (≈ 18.3 µM)
- isolates in the area of technical uncertainty (ATU) [6]: 27%
- resistance of isolates [6]: No resistance
- change of MIC [8]: largely unchanged
- reduction in MIC [8]: 2 fold
- isolates resistant [24]: 17%
- MIC [25]: 4 µg/mL (≈ 9.14 µM)
- median trough drug level [16]: 3.29 mg/L
- Resistance [19]: 5%
- resistance of isolates [26]: resistant
- median blood level ([27]; 265 samples, 63 patients, first two months): 3.3 mg/L
- blood level range ([27]; ICU patients): 0 to 8480 ng/mL
- median blood level ([27]; ICU patients): 1.95 mg/L
- samples with level <1 mg/L ([27]; during renal replacement therapy, 7/24): 29.2%
- samples with level <1 mg/L ([27]; not receiving RRT, 7/46): 15.2%
- blood level range ([27]; all samples): 0 to 14520 ng/mL
- blood level range ([27]; non-ICU patients): 0 to 14520 ng/mL
- median blood level ([27]; non-ICU patients): 4.1 mg/L

Molecule: Granulocyte-macrophage colony stimulating factor [GM-CSF]
- complete responses, n (%) [28]: 35 (85%)
- neutrophil ability to control hyphal growth [29]: partially restored
